Experimental data from patent publication US11059820B2, “Crystalline forms of seletalisib” (UCB BIOPHARMA SPRL, priority 2017, dated 2021).

Assays:
Format in all cases: physicochemical
[1] = Thermodynamic stability: crystals suspended for 30 days in solvent/water mixtures of desired water activity
Text: (§1) The thermodynamic stability was checked by suspending crystals of Form B for 30 days in appropriate solvent/water mixtures, thus creating environments with the desired water activity. As water activity is equivalent to relative humidity (e.g. 60% RH=water activity 0.6), and due to the more rapid exchange of molecules between the crystals and the saturated solution in the suspension, this approach gives the possibility to observe the equilibrium condition of the solid form. […] Kinetic stability was checked by exposing solid, powdery samples to air at selected temperature and relative humidity.
(§2) The thermodynamic stability was checked by suspending crystals of Form F for 30 days in appropriate solvent/water mixtures, as explained above for Form B crystals.

[2] = Kinetic stability: solid, powdery samples exposed to air at selected temperature and relative humidity; details: 7 weeks, solid powder exposed to air
Text: as §1, §2

[3] = Dynamic Vapor Sorption (DVS); details: 25° C.
Procedure: Two different types of DVS equipment were used, where the sample weight uptake is plotted against the relative humidity over the sample: • SMS DVS controlled by the software DVS Win. The sample temperature is maintained at 25° C. The weight change of the sample as a function of % RH (relative humidity expressed as a percentage) was monitored by the microbalance. The sample was placed on a glass pan attached to the microbalance. A moisture cycle was performed from 30 to 90 to 0 to 30% RH at 25° C. (dm/dt 0.002 with a scanning step 10%). • Projekt Messtechnik Sorptions Prüfsystem SPS 11-100n or Surface Measurement Systems DVS-1; the sample was placed on an aluminium (SPS 11) or platinum (DVS-1) holder on top of the microbalance and conditioned at 25% RH and 25° C. A moisture cycle was performed from 25 to 95 to 0 to 25% RH at 5% RH per hour at 25° C.

Row | SMILES | thermodynamic stability under ICH conditions ([1]; 25° C./60% RH, (Hydrate)) | thermodynamic stability under ICH conditions ([1]; 40° C./75% RH, (Hydrate)) | kinetic stability ([2]; 25° C./60% RH) | kinetic stability ([2]; 40° C./75% RH) | continuous water uptake ([3]; from 25% RH to 95% RH) [% weight] | stepwise mass loss ([3]; second part of the cycle (95% RH to 0% RH), at low RH) [% weight] | stepwise water uptake ([3]; third part of the cycle (0% RH to 25% RH)) [%] | thermodynamic stability under ICH conditions ([1]; 25° C./60% RH) | thermodynamic stability under ICH conditions ([1]; 40° C./75% RH) | limited water uptake ([3]; observed from 70% RH onwards) [%] | hygroscopic behaviour (DVS) ([3]; variable relative humidity)
1 | [O-][n+]1cccc(-c2nc3c(Cl)cccc3cc2[C@@H](Nc2ncnc3cccnc23)C(F)(F)F)c1 [Form B, N-{(R)-1-[8-Chloro-2-(1-oxypyridin-3-yl)quinolin-3-yl]-2,2,2-trifluoroethyl}pyrido[3,2-d]pyrimidin-4-ylamine, Crystal Form B (Hydrate)] | thermodynamically stable | thermodynamically stable | kinetically stable | kinetically stable | ~2.4 | 3.3 | 3.6 |  |  |  | 
2 | [O-][n+]1cccc(-c2nc3c(Cl)cccc3cc2[C@@H](Nc2ncnc3cccnc23)C(F)(F)F)c1 [Form F, N-{(R)-1-[8-Chloro-2-(1-oxypyridin-3-yl)quinolin-3-yl]-2,2,2-trifluoroethyl}pyrido[3,2-d]pyrimidin-4-ylamine, Crystal Form F] |  |  |  |  |  |  |  | not to be thermodynamically stable | not to be thermodynamically stable | 1 | non-hygroscopic
